pIC50: −log10 of the molar value.

From patent US12552758B2, “Inhibitors of MLH1 and/or PMS2 for cancer treatment” (NeoPhore Limited, priority 2020, dated 2026) come the findings set out here.

In experiment [1] the target is recombinant N-terminal MLH1 (residues 15-340) (Homo sapiens (Human), UniProt P40692). In words: Fluorescence polarisation assay for MLH1 (protocol for all Examples except Examples 64, 76, 90 and 95). The format is binding. To be noted: FP probe displacement; 100 nM N-terminal MLH1, 5 nM probe compound, read after 15 minutes; all Examples except 64, 76, 90 and 95. The procedure:
Fluorescence Polarisation Assay for MLH1 (Protocol for all Examples Except Examples 64, 76, 90 and 95)
(§1) Test compounds, as 10 mM DMSO stocks, were dispensed into a Black Fluotrac 200 384 well medium binding plate (Greiner Bio-One, item number 781076) using a Labcyte Echo acoustic liquid handler. For single point screening, test compounds were added to wells in columns 1-22 whilst DMSO was added to wells in columns 23 and 24 in order to normalise the plate. For potency determination, serial dilutions of test compounds were added to wells in columns 3-22 and DMSO volume was normalised across the plate.
20 μL assay buffer was added to all wells in columns 1 and 24 (column 24 only for single point screening) using a MultiDrop Combi (ThermoFisher). Plates were centrifuged for 1 minute at 250×g and were incubated at room temperature for 30 minutes prior to the addition of 20 μL of 2×(10 nM) of 5-((5-(4-((2-(2,4-dihydroxy-5-isopropylbenzoyl)isoindolin-5-yl)methyl)piperazin-1-yl)pentyl)carbamoyl)-2-(6-(dimethylamino)-3-(dimethyliminio)-3H-xanthen-9-yl)benzoate (referred to hereinafter as “probe compound”) in assay buffer (prepared from a 100 μM DMSO stock) with a MultiDrop Combi (ThermoFisher). The final concentration of N-terminal MLH1 was 100 nM and the final concentration of probe compound was 5 nM.
Compound plates were centrifuged for 1 minute at 250×g for 1 minute and were incubated at room temperature for 15 minutes before being read on a PheraStar FSX (fitted with 384-well aperture spoon and 540 590 590 FP optic module). The gain and focus were adjusted before each plate was read so that the polarisation of a no enzyme control (column 24) was equal to 35 mP. Data were normalised against the no inhibitor controls (column 23) and no enzyme controls (column 24).

In experiment [2] the target is recombinant N-terminal PMS2 (residues 1-365) (Homo sapiens (Human), UniProt P54278). Briefly: Fluorescence polarisation assay for PMS2. It is filed as binding. The following applies: FP probe displacement; 10 nM N-terminal PMS2, 5 nM probe compound, read after 1 hour. The protocol:
Fluorescence Polarisation Assay for PMS2
as §1
20 μL assay buffer was added to all wells in columns 1 and 24 (column 24 only for single point screening) using a MultiDrop Combi (ThermoFisher). Plates were centrifuged for 1 minute at 250×g and were incubated at room temperature for 30 minutes prior to the addition of 20 μL of 2×([…]) of 5-((5-(4-((2-(2,4-dihydroxy-5-isopropylbenzoyl)isoindolin-5-yl)methyl)piperazin-1-yl)pentyl)carbamoyl)-2-(6-(dimethylamino)-3-(dimethyliminio)-3H-xanthen-9-yl)benzoate (referred to hereinafter as “probe compound”) in assay buffer (prepared from a 100 μM DMSO stock) with a MultiDrop Combi (ThermoFisher). The final concentration of N-terminal PMS2 was 10 nM and the final concentration of probe compound was 5 nM.
Compound plates were centrifuged for 1 minute at 250×g for 1 minute and were incubated at room temperature for 1 hour before being read on a PheraStar FSX (fitted with 384-well aperture spoon and 540 590 590 FP optic module). The gain and focus were adjusted before each plate was read so that the polarisation of a no enzyme control (column 24) was equal to 35 mP. Data were normalised against the no inhibitor controls (column 23) and no enzyme controls (column 24).

recombinant N-terminal MLH1 (residues 15-340), sequence (P40692 15-340): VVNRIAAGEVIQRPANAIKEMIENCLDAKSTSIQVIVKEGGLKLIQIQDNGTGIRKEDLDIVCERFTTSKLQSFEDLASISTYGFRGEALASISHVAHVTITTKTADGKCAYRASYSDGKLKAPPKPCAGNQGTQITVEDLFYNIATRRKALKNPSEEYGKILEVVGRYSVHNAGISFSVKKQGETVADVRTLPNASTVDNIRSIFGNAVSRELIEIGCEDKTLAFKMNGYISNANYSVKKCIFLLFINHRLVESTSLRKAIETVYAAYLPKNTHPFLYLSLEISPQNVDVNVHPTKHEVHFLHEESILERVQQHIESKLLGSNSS
recombinant N-terminal PMS2 (residues 1-365), sequence (P54278 1-365): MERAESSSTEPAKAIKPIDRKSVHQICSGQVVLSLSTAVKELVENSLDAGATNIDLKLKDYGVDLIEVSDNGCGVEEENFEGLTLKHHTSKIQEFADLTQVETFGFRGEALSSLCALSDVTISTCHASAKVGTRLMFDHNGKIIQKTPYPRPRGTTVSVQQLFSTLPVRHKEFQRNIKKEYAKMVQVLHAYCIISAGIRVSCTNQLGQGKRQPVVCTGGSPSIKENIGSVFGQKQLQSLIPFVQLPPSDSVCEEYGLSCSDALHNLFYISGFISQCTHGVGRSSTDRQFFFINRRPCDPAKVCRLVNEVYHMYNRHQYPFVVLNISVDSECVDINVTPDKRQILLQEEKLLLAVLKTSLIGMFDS

In the case of `CC(Oc1cc(O)cc(O)c1C(=O)N1CCCC1)c1ccccc1` (single isomer, unassigned) [Example 13], the pIC50 in experiment [1] and in experiment [2] was < 5.00 in each case.

Consider `CC(Oc1cc(O)cc(O)c1C(=O)N1CCCC1)c1ccccc1` (single isomer, unassigned) [Example 14], for which the pIC50 in experiment [1] and in experiment [2] was < 5.00 in each case.

As for `O=C(c1c(O)cc(O)cc1OCc1ncccn1)N1CCCC1` [Example 1, [2,4-dihydroxy-6-(pyrimidin-2-ylmethoxy)phenyl]-pyrrolidin-1-yl-methanone], the pIC50 in experiment [1] and in experiment [2] was < 5.00 in each case.

Take `O=C(c1c(O)cc(O)cc1OC1CCCC1)N1CCCC1` [Example 2, (2-(cyclopentyloxy)-4,6-dihydroxyphenyl)(pyrrolidin-1-yl)methanone]: the pIC50 in experiment [1] and in experiment [2] was < 5.00 each time.

`O=C(c1c(O)cc(O)cc1OCc1ccccc1)N1CCCC1` [Example 3, (2-benzyloxy-4,6-dihydroxy-phenyl)-pyrrolidin-1-yl-methanone]: the pIC50 in experiment [1] and in experiment [2] was < 5.00 throughout.

With `O=C(c1c(O)cc(O)cc1OCc1ccccc1)N1Cc2ccccc2C1` [Example 4, (2-benzyloxy-4,6-dihydroxy-phenyl)-isoindolin-2-yl-methanone], the pIC50 in experiment [1] and in experiment [2] was > 6.00 throughout.

In the case of `O=C(c1c(O)cc(O)cc1OCc1ccccc1)N1CCCCC1` [Example 5, (2-benzyloxy-4,6-dihydroxy-phenyl)-(1-piperidyl)methanone], the pIC50 in experiment [1] and in experiment [2] was < 5.00 each time.

Consider `O=C(c1c(O)cc(O)cc1OCc1ccccc1)N1CC[C@H](O)C1` [Example 6, (2-benzyloxy-4,6-dihydroxy-phenyl)-[(3S)-3-hydroxypyrrolidin-1-yl]methanone], for which the pIC50 in experiment [1] and in experiment [2] was < 5.00 throughout.

Consider `O=C(c1c(O)cc(O)cc1OCc1ccccc1)N1CC[C@@H](O)C1` [Example 7, (2-benzyloxy-4,6-dihydroxy-phenyl)-[(3R)-3-hydroxypyrrolidin-1-yl]methanone], for which the pIC50 in experiment [1] and in experiment [2] was < 5.00 throughout.

As to `O=C(c1c(O)cc(O)cc1OCc1ccccc1)N1CCC[C@@H](O)C1` [Example 8, (2-benzyloxy-4,6-dihydroxy-phenyl)-[(3R)-3-hydroxy-1-piperidyl]methanone], the negative logarithm of the IC50 (pIC50) in experiment [1] was < 5.00.

On to `O=C(c1c(O)cc(O)cc1OCc1ccccc1)N1CCC[C@H](O)C1` [Example 9, (2-benzyloxy-4,6-dihydroxy-phenyl)-[(3S)-3-hydroxy-1-piperidyl]methanone], for which, in experiment [1], the pIC50 is < 5.00.

`Cc1c(O)cc(O)c(C(=O)N2CCCC2)c1OCc1ccccc1` [Example 10, (2-benzyloxy-4,6-dihydroxy-3-methyl-phenyl)-pyrrolidin-1-yl-methanone]: the pIC50 in experiment [1] is < 5.00; in experiment [2], 5.00 to 6.00.

As for `CCc1c(O)cc(O)c(C(=O)N2CCCC2)c1OCc1ccccc1` [Example 11, (2-benzyloxy-3-ethyl-4,6-dihydroxy-phenyl)-pyrrolidin-1-yl-methanone], the negative logarithm of the IC50 (pIC50) in experiment [1] and in experiment [2] was < 5.00 each time.

Take `O=C(c1c(O)cc(O)cc1OCc1ccccn1)N1CCCC1` [Example 12, [2,4-dihydroxy-6-(2-pyridylmethoxy)phenyl]-pyrrolidin-1-yl-methanone]: the pIC50 in experiment [1] and in experiment [2] was < 5.00 in each case.

`O=C(c1c(O)cc(O)cc1OCc1ccc(F)cc1)N1CCCC1` [Example 15, [2-[(4-fluorophenyl)methoxy]-4,6-dihydroxy-phenyl]-pyrrolidin-1-yl-methanone]: the pIC50 in experiment [1] and in experiment [2] was < 5.00 each time.

With `COc1ccc(COc2cc(O)cc(O)c2C(=O)N2CCCC2)cc1` [Example 16, [2,4-dihydroxy-6-[(4-methoxyphenyl)methoxy]phenyl]-pyrrolidin-1-yl-methanone], the pIC50 in experiment [1] and in experiment [2] was < 5.00 each time.

With `Cc1cccc(COc2cc(O)cc(O)c2C(=O)N2CCCC2)c1` [Example 17, [2,4-dihydroxy-6-(m-tolylmethoxy)phenyl]-pyrrolidin-1-yl-methanone], the pIC50 in experiment [1] was < 5.00.

For `O=C(c1c(O)cc(O)cc1OCc1ccccc1)N1Cc2cccnc2C1` [Example 18, (2-benzyloxy-4,6-dihydroxy-phenyl)-(5,7-dihydropyrrolo[3,4-b]pyridin-6-yl)methanone], the pIC50 in experiment [1] and in experiment [2] was 5.00 to 6.00 throughout.

Consider `COc1cccc2c1CN(C(=O)c1c(O)cc(O)cc1OCc1ccccc1)C2` [Example 19, (2-benzyloxy-4,6-dihydroxy-phenyl)-(4-methoxyisoindolin-2-yl)methanone], for which the pIC50 in experiment [1] and in experiment [2] was > 6.00 each time.

As for `O=C(c1c(O)cc(O)cc1OCc1ccncn1)N1CCCC1` [Example 20, [2,4-dihydroxy-6-(pyrimidin-4-ylmethoxy)phenyl]-pyrrolidin-1-yl-methanone], the pIC50 in experiment [1] and in experiment [2] was < 5.00 throughout.

Turning to `O=C(c1c(O)cc(O)cc1OCc1cc[nH]n1)N1CCCC1` [Example 21, (2-((1H-pyrazol-3-yl)methoxy)-4,6-dihydroxyphenyl)(pyrrolidin-1-yl)methanone], the pIC50 in experiment [1] and in experiment [2] was < 5.00 each time.

For `O=C(c1c(O)cc(O)cc1OCc1c[nH]nn1)N1CCCC1` [Example 22, [2,4-dihydroxy-6-(1H-triazol-4-ylmethoxy)phenyl]-pyrrolidin-1-yl-methanone], the pIC50 in experiment [1] and in experiment [2] was < 5.00 throughout.

On to `O=C(c1c(O)cc(O)cc1OCc1ccccc1)N1Cc2ccc(Br)cc2C1` [Example 23, (2-benzyloxy-4,6-dihydroxy-phenyl)-(5-bromoisoindolin-2-yl)methanone], for which the pIC50 in experiment [1] and in experiment [2] was > 6.00 each time.

Regarding `COC(=O)c1ccc2c(c1)CN(C(=O)c1c(O)cc(O)cc1OCc1ccccc1)C2` [Example 24, methyl 2-(2-benzyloxy-4,6-dihydroxy-benzoyl)isoindoline-5-carboxylate], the pIC50 in experiment [1] and in experiment [2] was > 6.00 in each case.

In the case of `COc1ccc2c(c1)CN(C(=O)c1c(O)cc(O)cc1OCc1ccccc1)C2` [Example 25, (2-benzyloxy-4,6-dihydroxy-phenyl)-(5-methoxyisoindolin-2-yl)methanone], the pIC50 in experiment [1] and in experiment [2] was > 6.00 throughout.

`COc1cc2c(cc1OC)CN(C(=O)c1c(O)cc(O)cc1OCc1ccccc1)C2` [Example 26, (2-benzyloxy-4,6-dihydroxy-phenyl)-(5,6-dimethoxyisoindolin-2-yl)methanone]: the pIC50 in experiment [1] is 5.00 to 6.00; in experiment [2], > 6.00.

For the molecule `CC(Oc1cc(O)cc(O)c1C(=O)N1Cc2ccccc2C1)c1ccccc1` (centres unmarked) [Example 27, [2,4-dihydroxy-6-(1-phenylethoxy)phenyl]-isoindolin-2-yl-methanone], the pIC50 is 5.00 to 6.00 in experiment [1] and > 6.00 in experiment [2].

Consider `COc1ccc2c(c1)CN(C(=O)c1c(O)cc(O)cc1OC(C)c1ccccc1)C2` (centres unmarked) [Example 28, [2,4-dihydroxy-6-(1-phenylethoxy)phenyl]-(5-methoxyisoindolin-2-yl)methanone], for which the pIC50 in experiment [1] is 5.00 to 6.00; in experiment [2], > 6.00.

In the case of `Cc1c(O)cc(O)c(C(=O)N2CCc3ccccc3C2)c1OCc1ccccn1` [Example 45, 3,4-dihydro-1H-isoquinolin-2-yl-[4,6-dihydroxy-3-methyl-2-(2-pyridylmethoxy)phenyl]methanone], in experiment [1], the pIC50 was < 5.00.

On to `COc1ccc2c(c1)CN(C(=O)c1c(O)cc(O)c(C)c1OCc1ccccn1)CC2` [Example 46, [4,6-dihydroxy-3-methyl-2-(2-pyridylmethoxy)phenyl]-(7-methoxy-3,4-dihydro-1H-isoquinolin-2-yl)methanone], for which the pIC50 in experiment [1] was < 5.00.

For the molecule `Cc1c(O)cc(O)c(C(=O)N2CCOc3ccccc32)c1OCc1ccccc1` [Example 67, (2-(Benzyloxy)-4,6-dihydroxy-3-methylphenyl)(2,3-dihydro-4H-benzo[b][1,4]oxazin-4-yl)methanone], the pIC50 in experiment [1] is < 5.00.
